Experimental data reported in BindingDB's records for doi:10.1016/j.chembiol.2010.07.016 (Cyclacel, 2010).
pKi: −log10 of the molar value.

What was measured:
Assay in all cases: In Vitro Kinase Assay
[1] = target: Cyclin-dependent kinase 7 (Homo sapiens, UniProt P50613)
Description: (§1) Kinase assay using cyclin-dependant kinases (CDK).

[2] = target: Cyclin-dependent kinase 1 (Homo sapiens, UniProt P06493)
Description: as §1

[3] = target: Cyclin-dependent kinase 2 (Homo sapiens, UniProt P24941)
Description: as §1

[4] = target: Cyclin-dependent kinase 4 (Homo sapiens, UniProt P11802)
Sequence of Cyclin-dependent kinase 4 (P11802 whole entry): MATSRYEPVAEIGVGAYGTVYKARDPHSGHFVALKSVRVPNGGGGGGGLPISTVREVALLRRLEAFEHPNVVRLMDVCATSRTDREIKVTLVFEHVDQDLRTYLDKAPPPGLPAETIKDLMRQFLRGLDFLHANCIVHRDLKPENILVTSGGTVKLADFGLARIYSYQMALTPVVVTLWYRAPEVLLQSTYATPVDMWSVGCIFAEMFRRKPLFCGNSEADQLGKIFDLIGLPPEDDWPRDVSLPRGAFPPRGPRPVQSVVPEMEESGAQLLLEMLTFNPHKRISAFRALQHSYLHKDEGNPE
Description: as §1

[5] = target: Cyclin-dependent kinase 9 (Homo sapiens, UniProt P50750)
Sequence of Cyclin-dependent kinase 9 (P50750 whole entry): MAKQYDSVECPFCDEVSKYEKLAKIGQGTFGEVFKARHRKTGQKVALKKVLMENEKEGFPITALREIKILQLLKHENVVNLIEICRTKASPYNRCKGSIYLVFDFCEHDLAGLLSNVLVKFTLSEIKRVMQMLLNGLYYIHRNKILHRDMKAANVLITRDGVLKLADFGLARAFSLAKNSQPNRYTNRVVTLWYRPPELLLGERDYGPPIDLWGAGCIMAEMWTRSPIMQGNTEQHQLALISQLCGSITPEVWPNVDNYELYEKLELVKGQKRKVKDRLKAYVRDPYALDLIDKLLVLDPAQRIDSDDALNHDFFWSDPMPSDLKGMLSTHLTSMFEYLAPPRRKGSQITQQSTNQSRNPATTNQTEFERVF
Description: as §1

Sequence of Cyclin-dependent kinase 7 (P50613 whole entry): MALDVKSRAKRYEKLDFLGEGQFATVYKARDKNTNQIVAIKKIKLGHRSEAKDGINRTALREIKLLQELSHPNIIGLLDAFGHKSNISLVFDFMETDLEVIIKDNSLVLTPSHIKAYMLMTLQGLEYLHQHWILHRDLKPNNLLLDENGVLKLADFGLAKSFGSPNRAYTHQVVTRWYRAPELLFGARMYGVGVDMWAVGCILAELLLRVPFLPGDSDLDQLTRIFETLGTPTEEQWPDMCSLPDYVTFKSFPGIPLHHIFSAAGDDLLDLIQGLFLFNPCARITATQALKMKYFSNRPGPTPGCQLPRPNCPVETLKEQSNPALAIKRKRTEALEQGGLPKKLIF
Sequence of Cyclin-dependent kinase 1 (P06493 whole entry): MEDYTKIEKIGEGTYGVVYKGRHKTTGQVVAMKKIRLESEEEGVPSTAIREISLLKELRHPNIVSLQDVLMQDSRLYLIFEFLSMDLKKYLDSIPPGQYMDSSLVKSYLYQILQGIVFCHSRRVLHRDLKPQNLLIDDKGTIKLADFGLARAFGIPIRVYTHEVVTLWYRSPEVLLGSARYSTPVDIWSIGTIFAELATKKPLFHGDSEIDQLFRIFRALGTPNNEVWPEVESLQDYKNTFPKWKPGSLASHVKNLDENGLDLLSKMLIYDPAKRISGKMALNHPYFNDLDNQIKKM

Row | SMILES | pKi [1] | pKi [2] | pKi [3] | pKi [4] | pKi [5]
1 | CNc1nc(C)c(-c2ccnc(Nc3cccc(S(=O)(=O)NC)c3)n2)s1 [CDK Inhibitor, 4] | 6.97 | 6.48 | 7.48 | 7.70 | 8.37
2 | COCCNS(=O)(=O)c1ccc(Nc2nccc(-c3sc(=O)n(C)c3C)n2)cc1 [CDK Inhibitor, 11] |  |  |  | < 6.30 | 
3 | CCNS(=O)(=O)c1cccc(Nc2nccc(-c3sc(N)nc3C)n2)c1 [CDK Inhibitor, 8] | 6.71 | 6.18 | 7.33 | 6.41 | 8.23
4 | Cc1ccc(Nc2nccc(-c3sc(N)nc3C)n2)cc1S(=O)(=O)N1CCOCC1 [CDK Inhibitor, 10] | 6.52 | < 6.30 | < 6.30 | < 6.30 | 8.07
5 | Cc1c(-c2ccnc(Nc3ccc(N4CCNCC4)cc3)n2)sc(=O)n1C [CDK Inhibitor, 14] | 8.64 | 6.35 | 6.83 | 7.17 | 9.42
6 | CCNc1nc(C)c(-c2ccnc(Nc3cccc(S(C)(=O)=O)c3)n2)s1 [CDK Inhibitor, 7] | 7.33 | < 6.30 | 8.12 | 6.86 | 9.02
7 | CNc1nc(C)c(-c2ccnc(Nc3cccc(S(N)(=O)=O)c3)n2)s1 [CDK Inhibitor, 3] | 7.60 | 7.17 | 8.62 | 8.04 | 9.10
8 | CCNc1nc(C)c(-c2ccnc(Nc3cccc(S(N)(=O)=O)c3)n2)s1 [CDK Inhibitor, 2] | 7.25 | 6.16 | 6.39 | 6.88 | 8.35
9 | CNc1nc(C)c(-c2ccnc(Nc3ccc(C)c(S(=O)(=O)N4CCOCC4)c3)n2)s1 [CDK Inhibitor, 9] | 5.46 | < 6.30 | < 6.30 | < 6.30 | 8.17
10 | Cc1ccc(Nc2nccc(-c3sc(=O)n(C)c3C)n2)cc1[N+](=O)[O-] [CDK Inhibitor, 13] | 9.25 | 8.52 | 7.55 | 7.22 | 8.23
11 | CNS(=O)(=O)c1cccc(Nc2nccc(-c3sc(N)nc3C)n2)c1 [CDK Inhibitor, 5] | 6.90 | 6.63 | 7.59 | 6.79 | 8.37
12 | CNc1nc(C)c(-c2ccnc(Nc3cccc(S(C)(=O)=O)c3)n2)s1 [CDK Inhibitor, 6] | 7.04 | 7.07 | 8.80 | 7.03 | 9.54
13 | Cc1c(-c2ccnc(Nc3cccc(C#N)c3)n2)sc(=O)n1C [CDK Inhibitor, 12] |  |  | 9.28 | 6.99 | 
